# Measurements as given in ChEMBL document CHEMBL3217611, “Synthesis, cytotoxicity and hDHFR inhibition studies of 2H-pyrido[1,2-a]pyrimidin-2-ones” (Medchemcomm, 2013).
# Columns and labels:
# MCF7 = assay: Cytotoxicity against human MCF7 cells after 24 hrs by MTT assay; assay type: functional, cell-based; conditions: MCF7, 24 h
# A549 = assay: Cytotoxicity against human A549 cells after 24 hrs by MTT assay; assay type: functional, cell-based; conditions: A549, 24 h
# HepG2 = assay: cells; conditions: Homo sapiens, HepG2, 24 h
# Description: Cytotoxicity against human HepG2 cells after 24 hrs by MTT assay
# HeLa = assay: cells; conditions: Homo sapiens, 24 h
# Description: Cytotoxicity against human HeLa cells after 24 hrs by MTT assay
# SK-N-SH = assay: Cytotoxicity against human SK-N-SH cells after 24 hrs by MTT assay; assay type: functional, cell-based
# Dihydrofolate reductase = biological target: T1, Dihydrofolate reductase (Homo sapiens, UniProt P00374); assay: Inhibition of human DHFR assessed as depletion of NADPH after 30 secs shaking by spectrophotometry
# T1 sequence (P00374 whole entry): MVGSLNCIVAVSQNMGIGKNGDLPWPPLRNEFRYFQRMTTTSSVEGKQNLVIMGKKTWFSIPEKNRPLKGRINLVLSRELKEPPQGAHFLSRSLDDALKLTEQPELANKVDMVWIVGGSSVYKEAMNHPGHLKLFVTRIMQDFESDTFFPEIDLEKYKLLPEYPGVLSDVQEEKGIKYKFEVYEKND
smiles,measurement,setting,value
O=c1nc2ccccn2cc1Cc1cccc(Oc2ccccc2)c1,IC50,MCF7,243 µM
same,IC50,A549,> 1000 µM
same,IC50,HepG2,> 1000 µM
same,IC50,HeLa,> 1000 µM
same,IC50,SK-N-SH,141 µM
COc1ccc(Cc2cn3cc(Br)ccc3nc2=O)cc1,IC50,MCF7,> 1000 µM
same,IC50,A549,> 1000 µM
same,IC50,HepG2,> 1000 µM
same,IC50,HeLa,928 µM
same,IC50,SK-N-SH,0.94 µM
O=c1nc2ccc(Br)cn2cc1Cc1ccc(Br)cc1,IC50,MCF7,97.2 µM
same,IC50,A549,102 µM
same,IC50,HepG2,> 1000 µM
same,IC50,HeLa,931 µM
same,IC50,SK-N-SH,0.87 µM
O=c1nc2ccc(Cl)cn2cc1Cc1ccc(F)cc1C(F)(F)F,IC50,MCF7,181 µM
same,IC50,A549,> 1000 µM
same,IC50,HepG2,> 1000 µM
same,IC50,HeLa,> 1000 µM
same,IC50,SK-N-SH,106 µM
Nc1cccn2cc(Cc3ccc(F)cc3)c(=O)nc12,IC50,MCF7,135 µM
same,IC50,A549,> 1000 µM
same,IC50,HepG2,> 1000 µM
same,IC50,HeLa,> 1000 µM
same,IC50,SK-N-SH,126 µM
CC1(C)OC2O[C@@H](Cc3cn4ccccc4nc3=O)C(OCc3ccccc3)C2O1 (stereo partly specified),IC50,MCF7,> 1000 µM
same,IC50,A549,199 µM
same,IC50,HepG2,> 1000 µM
same,IC50,HeLa,> 1000 µM
same,IC50,SK-N-SH,> 1000 µM
O=c1nc2ccc(Cl)cn2cc1Cc1ccc([N+](=O)[O-])cc1,IC50,MCF7,> 1000 µM
same,IC50,A549,> 1000 µM
same,IC50,HepG2,> 1000 µM
same,IC50,HeLa,928 µM
same,IC50,SK-N-SH,0.94 µM
Nc1cc(Br)cn2cc(Cc3ccc(F)cc3C(F)(F)F)c(=O)nc12,IC50,MCF7,151 µM
same,IC50,A549,> 1000 µM
same,IC50,HepG2,> 1000 µM
same,IC50,HeLa,> 1000 µM
same,IC50,SK-N-SH,133 µM
O=c1nc2ccc(Br)cn2cc1Cc1ccccc1,IC50,MCF7,> 1000 µM
same,IC50,A549,> 1000 µM
same,IC50,HepG2,> 1000 µM
same,IC50,HeLa,152 µM
same,IC50,SK-N-SH,137 µM
O=c1nc2ccccn2cc1Cc1ccc(F)cc1C(F)(F)F,IC50,MCF7,9.87 µM
same,IC50,A549,> 1000 µM
same,IC50,Dihydrofolate reductase,3.1 µM
same,IC50,HepG2,804 µM
same,IC50,HeLa,88 µM
same,IC50,SK-N-SH,8.69 µM
O=c1nc2ccccn2cc1Cc1ccc(Br)cc1,IC50,MCF7,157 µM
same,IC50,A549,> 1000 µM
same,IC50,HepG2,> 1000 µM
same,IC50,HeLa,> 1000 µM
same,IC50,SK-N-SH,163 µM
O=c1nc2ccccn2cc1Cc1ccccc1,IC50,MCF7,75.4 µM
same,IC50,A549,104 µM
same,IC50,HepG2,> 1000 µM
same,IC50,HeLa,> 1000 µM
same,IC50,SK-N-SH,95.4 µM
Nc1cc(Br)cn2cc(Cc3ccccc3)c(=O)nc12,IC50,MCF7,> 1000 µM
same,IC50,A549,> 1000 µM
same,IC50,HepG2,> 1000 µM
same,IC50,HeLa,> 1000 µM
same,IC50,SK-N-SH,149 µM
O=c1nc2ccc(Br)cn2cc1Cc1cccc(Oc2nc(Cl)c(Cl)cc2Cl)c1,IC50,MCF7,9.77 µM
same,IC50,A549,> 1000 µM
same,IC50,Dihydrofolate reductase,2.73 µM
same,IC50,HepG2,> 1000 µM
same,IC50,HeLa,> 1000 µM
same,IC50,SK-N-SH,9.24 µM
COc1cccc2c1C(=O)c1c(O)c3c(c(O)c1C2=O)C[C@@](O)(C(=O)CO)C[C@@H]3O[C@H]1C[C@H](N)[C@H](O)[C@H](C)O1 [DOXORUBICIN],IC50,A549,10.6 µM
same,IC50,HeLa,1.12 µM
same,IC50,SK-N-SH,10.9 µM
O=c1nc2ccc(Cl)cn2cc1Cc1ccc(Oc2nc(Cl)c(Cl)cc2Cl)cc1,IC50,MCF7,96.9 µM
same,IC50,A549,> 1000 µM
same,IC50,HepG2,992 µM
same,IC50,HeLa,> 1000 µM
same,IC50,SK-N-SH,8.69 µM
O=C1N=C2C=CC=CN2CC1C(O)c1cccs1 (stereo unspecified),IC50,MCF7,166 µM
same,IC50,A549,248 µM
same,IC50,HepG2,> 1000 µM
same,IC50,HeLa,166 µM
same,IC50,SK-N-SH,> 1000 µM
CC1(C)OC2O[C@@H](Cc3cn4cc(Cl)ccc4nc3=O)C(OCc3ccccc3)C2O1 (stereo partly specified),IC50,MCF7,> 1000 µM
same,IC50,A549,182 µM
same,IC50,HepG2,> 1000 µM
same,IC50,HeLa,> 1000 µM
same,IC50,SK-N-SH,> 1000 µM
Nc1cccn2cc(Cc3ccccc3)c(=O)nc12,IC50,MCF7,105 µM
same,IC50,A549,98 µM
same,IC50,Dihydrofolate reductase,8.72 µM
same,IC50,HepG2,131 µM
same,IC50,HeLa,112 µM
same,IC50,SK-N-SH,116 µM
O=c1nc2ccc(Cl)cn2cc1Cc1ccc(F)cc1,IC50,MCF7,10.4 µM
same,IC50,A549,98.3 µM
same,IC50,HepG2,> 1000 µM
same,IC50,HeLa,> 1000 µM
same,IC50,SK-N-SH,9.86 µM
O=c1nc2ccccn2cc1Cc1ccc(F)cc1,IC50,MCF7,200 µM
same,IC50,A549,> 1000 µM
same,IC50,HepG2,> 1000 µM
same,IC50,HeLa,139 µM
same,IC50,SK-N-SH,125 µM
O=c1nc2ccc(Br)cn2cc1Cc1ccc(Cl)cc1,IC50,MCF7,> 1000 µM
same,IC50,A549,105 µM
same,IC50,HepG2,> 1000 µM
same,IC50,HeLa,> 1000 µM
same,IC50,SK-N-SH,0.94 µM
Cc1ccc(Cc2cn3cc(Cl)ccc3nc2=O)cc1,IC50,MCF7,> 1000 µM
same,IC50,A549,> 1000 µM
same,IC50,HepG2,> 1000 µM
same,IC50,HeLa,> 1000 µM
same,IC50,SK-N-SH,0.86 µM
